Here are results for 3 molecules from ChEMBL document CHEMBL1137255, “HIV-1 protease mutations and inhibitor modifications monitored on a series of complexes. Structural basis for the effect of the A71V mutation on the active site” (J Med Chem, 2006).

Experiment [1] deals with T1, Human immunodeficiency virus type 1 protease (Human immunodeficiency virus 1, UniProt Q72874). Kind of experiment: Inhibition of wild type HIV1 protease.
Experiment [2] addresses T1, Human immunodeficiency virus type 1 protease. Put plainly: Inhibition of HIV1 protease I8 mutant.

With `CC(C)(C)OC(=O)N[C@@H](Cc1ccccc1)[C@@H](O)C[C@@H](Cc1ccccc1)C(=O)N[C@@H](CCC(N)=O)C(=O)N[C@@H](Cc1ccccc1)C(N)=O`, the inhibition constant (Ki) came out at 0.02 nM in experiment [1] and 0.26 nM in experiment [2].

For the molecule `CC(C)(C)OC(=O)N[C@@H](Cc1ccccc1)[C@@H](O)CN[C@@H](Cc1ccccc1)C(=O)N[C@@H](CCC(=O)O)C(=O)N[C@@H](Cc1ccccc1)C(N)=O`, the values for the inhibitory constant (Ki) in experiment [1] and in experiment [2] were 0.15 nM and 86 nM, respectively.

As for `CC(C)(C)OC(=O)N[C@@H](Cc1ccccc1)[C@@H](O)CN[C@@H](Cc1ccccc1)C(=O)N[C@@H](CCC(N)=O)C(=O)N[C@@H](Cc1ccccc1)C(N)=O`, the inhibition constant Ki was determined as 33 nM in experiment [1] and 1000 nM in experiment [2].
